Entries after “also recorded” stand apart in the source; their conditions may differ. Read-outs that look alike come from different tables or passages of the source.
Experiment: Plasma pharmacokinetics, multiple-ascending-dose phase 1 study
Assay type: in vivo, human
Settings: for RAUC (accumulation ratio for AUC) / RCmax (accumulation ratio for Cmax): day 10 vs day 1; for half-life / Cmax / Vd/F / Tmax / AUC(0-t) / AUC: human, plasma; for Vd/F: read-out: Vz/F,ss
Method: This study was conducted in full accordance with the Declaration of Helsinki and good clinical practices (GCP) at Quintiles Phase One Services in Overland Park, KS. Subjects were randomized in a 4:1 fashion (8 active:2 placebo) in each cohort to receive 200 mg, 400 mg, or 600 mg of CRS3123 or matching placebo every 12 h for 10 days (https://clinicaltrials.gov/ct2/show/NCT02106338). Subjects fasted 1 h before and 2 h after administration of the study product with a minimum of 8 oz. (240 ml) of water. Water and noncaffeinated drinks (except grapefruit juice) during the study were not restricted. Informed consent was obtained before any study-related procedures and clinical evaluations were performed. All 30 randomized subjects completed the study; 24 subjects received CRS3123 and 6 subjects received placebo. There were no premature withdrawals or discontinuations.
After a screening period of up to 35 days, eligible subjects were admitted to the study center for baseline evaluations on day −1. On the morning of day 1, eligible subjects were randomized to receive either the study drug or placebo orally every 12 h through day 10. Subjects remained inpatient at the study center until discharge on day 12. During the inpatient period, subjects were monitored for safety and pharmacokinetics (PK). Subjects were followed for 2 additional outpatient visits at the study center, on days 18 ± 2 and 29 ± 2.
PK method development, validation, and sample testing for plasma, feces, and urine were performed at KCAS, LLC (Shawnee, KS). Plasma, urine, and fecal concentrations of CRS3123 were determined by means of validated, sensitive, and specific high-performance liquid chromatography/tandem mass spectrometric (HPLC-MS/MS) assays. The lower limits of quantification of CRS3123 in plasma, feces, and urine were 10.0 ng/ml, 60.0 ng/g, and 100.0 ng/ml, respectively. The validated urine PK assay measured total free CSR3123. Since the majority of urinary CRS3123 was excreted as glucuronide conjugates ([32]), an enzymatic cleavage step using glucuronidase was added to the process to convert the glucuronide conjugates to free CRS3123 for the urine analysis.
The PK population consisted of all subjects who received active study drug (CRS3123) and had at least one measured CRS3123 concentration at a scheduled PK time point after the start of study drug administration.
Pharmacokinetic parameters for plasma were derived using noncompartmental methods with Phoenix WinNonlin version 6.4 (Pharsight Corporation, Certara L.P., Princeton, NJ). PK parameters for urine and feces were derived using SAS version 9.4 (SAS Institute, Inc., Cary, NC). All statistical calculations and reporting were performed using SAS version 9.4. Graphics were prepared with SAS version 9.4 or SigmaPlot 12.5 (Systat Software, Inc., San Jose, CA).
(i) Plasma PK. Plasma concentrations of CRS3123 throughout the 12-h dosing interval on PK days (day 1 and day 10) were summarized using descriptive statistics for each treatment.
One-way analysis of variance (ANOVA) models were used to assess any differences in appropriate PK parameters between adjacent dose levels following a single dose (day 1) and multiple doses (day 10). An ANOVA model on the log-transformed PK parameters (AUC0–12 and Cmax on day 1; AUC0–tau and Cmax on day 10) with fixed effect for treatment was performed separately for the single-dose analysis and multiple-dose analysis. From these models, the least-squares (LS) means together with 95% confidence intervals (Cis) for each dose and the LS means with corresponding 90% CIs for all adjacent dose pairs were calculated. Transformed back from the logarithmic scale, geometric LS means with corresponding 90% CIs were provided for each dose and adjacent dose ratios following both single and multiple dosing. PK accumulation was presented using descriptive statistics, and achievement of steady state was assessed graphically. […]

[1] = 200 mg Q12h, day 10, geometric mean
[2] = 400 mg Q12h, day 10, geometric mean
[3] = 600 mg Q12h, day 10, geometric mean

For `O=c1cc(NCCCN[C@@H]2CCOc3c(Br)cc(Br)cc32)[nH]c2ccsc12` [CRS3123], the “CL/F,ss” value [1] was 80.2 L/h, the “Plasma Cmin,ss” value [1] was 85.2 ng/mL and the “CL/F,ss” value (200 mg Q12h, day 10, median) was 82.0 L/h. For the same molecule, the “Plasma Cmin,ss” value (200 mg Q12h, day 10, median) was 76.2 ng/mL, the “RAUC (accumulation ratio for AUC)” value (200 mg Q12h, geometric mean) was 1.61 and the “RCmax (accumulation ratio for Cmax)” value (200 mg Q12h, geometric mean) was 1.34. The “RAUC (accumulation ratio for AUC)” value (200 mg Q12h, median) was 1.54, the “RCmax (accumulation ratio for Cmax)” value (200 mg Q12h, median) was 1.11 and the “Plasma t1/2” value (200 mg Q12h oral, day 1, median (minimum, maximum)) was 3.0 (2.7, 3.7) h. The “Plasma t1/2,ss” value (200 mg Q12h oral, day 10, median (minimum, maximum)) was 4.6 (4.1, 7.0) h, the “CL/F,ss” value [2] was 125 L/h and the “Plasma Cmin,ss” value [2] was 112 ng/mL. For the same molecule, the “CL/F,ss” value (400 mg Q12h, day 10, median) was 121 L/h, the “Plasma Cmin,ss” value (400 mg Q12h, day 10, median) was 122 ng/mL and the “RAUC (accumulation ratio for AUC)” value (400 mg Q12h, geometric mean) was 1.37. For the same molecule, the “RCmax (accumulation ratio for Cmax)” value (400 mg Q12h, geometric mean) was 1.22, the “RAUC (accumulation ratio for AUC)” value (400 mg Q12h, median) was 1.21 and the “RCmax (accumulation ratio for Cmax)” value (400 mg Q12h, median) was 1.19. For the same molecule, the “Plasma t1/2” value (400 mg Q12h oral, day 1, median (minimum, maximum)) was 3.6 (2.9, 4.3) h, the “Plasma t1/2,ss” value (400 mg Q12h oral, day 10, median (minimum, maximum)) was 5.0 (3.4, 7.7) h and the “CL/F,ss” value [3] was 149 L/h. The “Plasma Cmin,ss” value [3] was 160 ng/mL, the “CL/F,ss” value (600 mg Q12h, day 10, median) was 162 L/h and the “Plasma Cmin,ss” value (600 mg Q12h, day 10, median) was 161 ng/mL. For the same molecule, the “RAUC (accumulation ratio for AUC)” value (600 mg Q12h, geometric mean) was 1.13, the “RCmax (accumulation ratio for Cmax)” value (600 mg Q12h, geometric mean) was 1.12 and the “RAUC (accumulation ratio for AUC)” value (600 mg Q12h, median) was 1.15. The “RCmax (accumulation ratio for Cmax)” value (600 mg Q12h, median) was 1.05, the “Plasma t1/2” value (600 mg Q12h oral, day 1, median (minimum, maximum)) was 2.9 (2.6, 4.0) h and the “systemic uptake after oral dosing” value (200 to 600 mg twice daily) was “limited but detectable systemic uptake”. The “dose proportionality of plasma exposure” value (200 to 600 mg, day 1 and day 10) was “less than dose proportional”, the “accumulation in plasma following multiple twice-daily dosing” value (10 days twice daily, trough concentration profiles) was “minimal accumulation; also recorded: essentially no accumulation” and the “power model slope (β) estimates for AUC and Cmax” value (day 1 and day 10, 200 to 600 mg) was “well below one”. For the same molecule, the “increase of geometric mean AUC0–12 with a 3-fold increase in dose” value (first dose, 200 mg to 600 mg) was “approximately 2.3 fold”, the “increase of geometric mean Cmax with a 3-fold increase in dose” value (first dose, 200 mg to 600 mg) was about 1.9 fold and the half-life (oral, 200 mg, 200 mg Q12h, day 1, geometric mean, read-out: Plasma t1/2 (converted)) was 181 min. It also gave a Cmax (oral, 200 mg, 200 mg Q12h, day 1, median, read-out: Plasma Cmax) of 342 ng/mL, a half-life (oral, 200 mg, 200 mg Q12h, day 10, geometric mean, read-out: Plasma t1/2,ss (converted)) of 283 min and a Vd/F (oral, 200 mg, 200 mg Q12h, day 10, geometric mean) of 591 L. The Cmax (oral, 200 mg, 200 mg Q12h, day 10, median, read-out: Plasma Cmax,ss) was 492 ng/mL, the Vd/F (oral, 200 mg, 200 mg Q12h, day 10, median) was 578 L and the half-life (oral, 400 mg, 400 mg Q12h, day 1, geometric mean, read-out: Plasma t1/2 (converted)) was 212 min. The Cmax (oral, 400 mg, 400 mg Q12h, day 1, median, read-out: Plasma Cmax) was 504 ng/mL, the half-life (oral, 400 mg, 400 mg Q12h, day 10, geometric mean, read-out: Plasma t1/2,ss (converted)) was 311 min and the Vd/F (oral, 400 mg, 400 mg Q12h, day 10, geometric mean) was 937 L. For the same molecule, the Cmax (oral, 400 mg, 400 mg Q12h, day 10, median, read-out: Plasma Cmax,ss) was 603 ng/mL, the Vd/F (oral, 400 mg, 400 mg Q12h, day 10, median) was 917 L and the half-life (oral, 600 mg, 600 mg Q12h, day 1, geometric mean, read-out: Plasma t1/2 (converted)) was 182 min. For the same molecule, the Cmax (oral, 600 mg, 600 mg Q12h, day 1, median, read-out: Plasma Cmax) was 642 ng/mL, the half-life (oral, 600 mg, 600 mg Q12h, day 10, geometric mean, read-out: Plasma t1/2,ss (converted)) was 379 min and the Vd/F (oral, 600 mg, 600 mg Q12h, day 10, geometric mean) was 1400 L. For the same molecule, the Cmax (oral, 600 mg, 600 mg Q12h, day 10, median, read-out: Plasma Cmax,ss) was 674 ng/mL, the Vd/F (oral, 600 mg, 600 mg Q12h, day 10, median) was 1410 L and the Tmax (oral, 600 mg, after first dose, day 1, range across the 3 dose groups (200, 400, 600 mg), read-out: median time to maximum concentration (Tmax)) was 7200 to 10800 s. The half-life (oral, after 10 days twice-daily, range across the three dose groups, read-out: geometric mean t1/2,ss) was 300 to 360 min, the Tmax (oral, after 10 days twice-daily, range across the three dose groups, read-out: median Tmax at steady state (Tmax,ss)) was 3600 to 7200 s and the half-life (oral, after first dose, day 1, range across the 3 dose groups, read-out: geometric mean half-life (t1/2)) was 180 to 240 min. It also gave an AUC(0-t) (oral, 200 mg Q12h, day 1, median, read-out: Plasma AUC(0-12)) of 1230 ng·h/mL, an AUC (oral, 200 mg Q12h, day 10, median, read-out: Plasma AUC(0-tau)) of 2470 ng·h/mL and an AUC(0-t) (oral, 400 mg Q12h, day 1, median, read-out: Plasma AUC(0-12)) of 2510 ng·h/mL. For the same molecule, the AUC (oral, 400 mg Q12h, day 10, median, read-out: Plasma AUC(0-tau)) was 3310 ng·h/mL, the AUC(0-t) (oral, 600 mg Q12h, day 1, median, read-out: Plasma AUC(0-12)) was 3630 ng·h/mL and the AUC (oral, 600 mg Q12h, day 10, median, read-out: Plasma AUC(0-tau)) was 3740 ng·h/mL. It also gave a Cmax (po, 200 mg, 200 mg Q12h oral, day 1, geometric mean (%CV), read-out: Plasma Cmax) of 352 ng/mL, a Tmax (po, 200 mg, 200 mg Q12h oral, day 1, median (minimum, maximum), read-out: Plasma Tmax) of 7200 s and a half-life (po, 200 mg, 200 mg Q12h oral, day 1, median (minimum, maximum), read-out: Plasma t1/2 (converted)) of 178 min. The Cmax (po, 200 mg, 200 mg Q12h oral, day 10, geometric mean (%CV), read-out: Plasma Cmax,ss) was 470 ng/mL, the Tmax (po, 200 mg, 200 mg Q12h oral, day 10, median (minimum, maximum), read-out: Plasma Tmax,ss) was 5400 s and the half-life (po, 200 mg, 200 mg Q12h oral, day 10, median (minimum, maximum), read-out: Plasma t1/2,ss (converted)) was 275 min. For the same molecule, the Cmax (po, 400 mg, 400 mg Q12h oral, day 1, geometric mean (%CV), read-out: Plasma Cmax) was 507 ng/mL, the Tmax (po, 400 mg, 400 mg Q12h oral, day 1, median (minimum, maximum), read-out: Plasma Tmax) was 10800 s and the half-life (po, 400 mg, 400 mg Q12h oral, day 1, median (minimum, maximum), read-out: Plasma t1/2 (converted)) was 217 min. The Cmax (po, 400 mg, 400 mg Q12h oral, day 10, geometric mean (%CV), read-out: Plasma Cmax,ss) was 615 ng/mL, the Tmax (po, 400 mg, 400 mg Q12h oral, day 10, median (minimum, maximum), read-out: Plasma Tmax,ss) was 7200 s and the half-life (po, 400 mg, 400 mg Q12h oral, day 10, median (minimum, maximum), read-out: Plasma t1/2,ss (converted)) was 301 min. The Cmax (po, 600 mg, 600 mg Q12h oral, day 1, geometric mean (%CV), read-out: Plasma Cmax) was 654 ng/mL, the Tmax (po, 600 mg, 600 mg Q12h oral, day 1, median (minimum, maximum), read-out: Plasma Tmax) was 7200 s and the half-life (po, 600 mg, 600 mg Q12h oral, day 1, median (minimum, maximum), read-out: Plasma t1/2 (converted)) was 171 min. For the same molecule, the Cmax (po, 600 mg, 600 mg Q12h oral, day 10, geometric mean (%CV), read-out: Plasma Cmax,ss) was 731 ng/mL, the Tmax (po, 600 mg, 600 mg Q12h oral, day 10, median (minimum, maximum), read-out: Plasma Tmax,ss) was 3600 s and the half-life (po, 600 mg, 600 mg Q12h oral, day 10, median (minimum, maximum), read-out: Plasma t1/2,ss (converted)) was 366 min. The AUC(0-t) (200 mg Q12h oral, day 1, geometric mean (%CV), read-out: Plasma AUC (AUC0–12)) was 1550 ng·h/mL, the AUC (200 mg Q12h oral, day 10, geometric mean (%CV), read-out: Plasma AUC (AUC0–tau)) was 2500 ng·h/mL and the AUC(0-t) (400 mg Q12h oral, day 1, geometric mean (%CV), read-out: Plasma AUC (AUC0–12)) was 2340 ng·h/mL. It also gave an AUC (400 mg Q12h oral, day 10, geometric mean (%CV), read-out: Plasma AUC (AUC0–tau)) of 3200 ng·h/mL, an AUC(0-t) (600 mg Q12h oral, day 1, geometric mean (%CV), read-out: Plasma AUC (AUC0–12)) of 3560 ng·h/mL and an AUC (600 mg Q12h oral, day 10, geometric mean (%CV), read-out: Plasma AUC (AUC0–tau)) of 4030 ng·h/mL.

— paper PMC7187627 (Antimicrobial Agents and Chemotherapy, 2019)
